# In PubChem BioAssay AID2060909 (Molecular Pharmacology Branch, DTP, NCI, 2025):
# System: 362531-283-R-J2-PDC complex spheroid viability
# Test: Anticancer human tumor 362531-283-R-J2-PDC patient-derived colon adenocarcinoma cell line growth inhibition [RAS]
# Settings: for IC50: curve of first compound; for viability, T/C: stronger effect = lower value
# Procedure, shortened: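 Multi-cell-type spheroids: tumor cells plus HUVEC endothelial cells and mesenchymal stem cells. RAS-pathway inhibitors were combined with targeted agents, each dosed in half-log steps down from clinical Cmax, or from 10 microM when Cmax was unknown.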
# [1] = second compound 0.00316 µM, first compound 0.0316 µM
# [2] = second compound 0.00316 µM, first compound 0.1 µM
# [3] = second compound 0.00316 µM, first compound 0.316 µM
# [4] = second compound 0.00316 µM, first compound 1 µM
# [5] = second compound 0.00316 µM, first compound 3.16 µM
# [6] = second compound 0.00316 µM, first compound 10 µM
# [7] = second compound 0.01 µM, first compound 0.0316 µM
# [8] = second compound 0.01 µM, first compound 0.1 µM
# [9] = second compound 0.01 µM, first compound 0.316 µM
# [10] = second compound 0.01 µM, first compound 1 µM
# [11] = second compound 0.01 µM, first compound 3.16 µM
# [12] = second compound 0.01 µM, first compound 10 µM
# [13] = second compound 0.0316 µM, first compound 0.0316 µM
# [14] = second compound 0.0316 µM, first compound 0.1 µM
# [15] = second compound 0.0316 µM, first compound 0.316 µM
# [16] = second compound 0.0316 µM, first compound 1 µM
# [17] = second compound 0.0316 µM, first compound 3.16 µM
# [18] = second compound 0.0316 µM, first compound 10 µM
# [19] = second compound 0.1 µM, first compound 0.0316 µM
# [20] = second compound 0.1 µM, first compound 0.1 µM
# [21] = second compound 0.1 µM, first compound 0.316 µM
# [22] = second compound 0.1 µM, first compound 1 µM
# [23] = second compound 0.1 µM, first compound 3.16 µM
# [24] = second compound 0.1 µM, first compound 10 µM
# [25] = second compound 0.316 µM, first compound 0.0316 µM
# [26] = second compound 0.316 µM, first compound 0.1 µM
# [27] = second compound 0.316 µM, first compound 0.316 µM
# [28] = second compound 0.316 µM, first compound 1 µM
# [29] = second compound 0.316 µM, first compound 3.16 µM
# [30] = second compound 0.316 µM, first compound 10 µM
# [31] = second compound 1 µM, first compound 0.0316 µM
# [32] = second compound 1 µM, first compound 0.1 µM
# [33] = second compound 1 µM, first compound 0.316 µM
# [34] = second compound 1 µM, first compound 1 µM
# [35] = second compound 1 µM, first compound 3.16 µM
# [36] = second compound 1 µM, first compound 10 µM
# 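Note: spheroids exposed to the agents for 7 days before readout.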
# 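Throughout, for viability, T/C: luminescence viability as percent of DMSO vehicle control wells.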
structure (smiles),measurement,setting,value
CC(C)NCC(C(=O)N1CCN(c2ncnc3c2C(C)CC3O)CC1)c1ccc(Cl)cc1 (stereo unspecified) + C=CC(=O)N1CCN(c2nc(OCC3CCCN3C)nc3c(F)c(-c4nc(N)cc(C)c4C(F)(F)F)c(Cl)cc23)C(C)C1,IC50,second compound 0.00316 µM,> 10000 nM
same,IC50,second compound 0.01 µM,> 10000 nM
same,IC50,second compound 0.0316 µM,> 10000 nM
same,IC50,second compound 0.1 µM,> 10000 nM
same,IC50,second compound 0.316 µM,> 10000 nM
same,IC50,second compound 1 µM,> 10000 nM
same,"viability, T/C",[1],109%
same,"viability, T/C",[2],98.7%
same,"viability, T/C",[3],103%
same,"viability, T/C",[4],91.2%
same,"viability, T/C",[5],97%
same,"viability, T/C",[6],92.5%
same,"viability, T/C",[7],93.7%
same,"viability, T/C",[8],101%
same,"viability, T/C",[9],90.7%
same,"viability, T/C",[10],94.6%
same,"viability, T/C",[11],106%
same,"viability, T/C",[12],107%
same,"viability, T/C",[13],90.5%
same,"viability, T/C",[14],104%
same,"viability, T/C",[15],101%
same,"viability, T/C",[16],102%
same,"viability, T/C",[17],103%
same,"viability, T/C",[18],94.9%
same,"viability, T/C",[19],94.2%
same,"viability, T/C",[20],94.5%
same,"viability, T/C",[21],105%
same,"viability, T/C",[22],96.8%
same,"viability, T/C",[23],111%
same,"viability, T/C",[24],102%
same,"viability, T/C",[25],95.4%
same,"viability, T/C",[26],105%
same,"viability, T/C",[27],101%
same,"viability, T/C",[28],96.8%
same,"viability, T/C",[29],111%
same,"viability, T/C",[30],92.5%
same,"viability, T/C",[31],98.6%
same,"viability, T/C",[32],101%
same,"viability, T/C",[33],95.7%
same,"viability, T/C",[34],102%
same,"viability, T/C",[35],104%
same,"viability, T/C",[36],86.8%
CC(C)n1nc(-c2ccc3oc(N)nc3c2)c2c(N)ncnc21 + C=CC(=O)N1CCN(c2nc(OCC3CCCN3C)nc3c(F)c(-c4nc(N)cc(C)c4C(F)(F)F)c(Cl)cc23)C(C)C1,IC50,second compound 0.00316 µM,> 100 nM
same,IC50,second compound 0.01 µM,> 100 nM
same,IC50,second compound 0.0316 µM,> 100 nM
same,IC50,second compound 0.1 µM,> 100 nM
same,IC50,second compound 0.316 µM,> 100 nM
same,IC50,second compound 1 µM,> 100 nM
same,"viability, T/C","second compound 0.00316 µM, first compound 0.000316 µM",97.8%
same,"viability, T/C","second compound 0.00316 µM, first compound 0.001 µM",91.8%
same,"viability, T/C","second compound 0.00316 µM, first compound 0.00316 µM",101%
same,"viability, T/C","second compound 0.00316 µM, first compound 0.01 µM",89.2%
same,"viability, T/C",[1],62.9%
same,"viability, T/C",[2],97.1%
same,"viability, T/C","second compound 0.01 µM, first compound 0.000316 µM",93.5%
same,"viability, T/C","second compound 0.01 µM, first compound 0.001 µM",92.2%
same,"viability, T/C","second compound 0.01 µM, first compound 0.00316 µM",105%
same,"viability, T/C","second compound 0.01 µM, first compound 0.01 µM",87.3%
same,"viability, T/C",[7],54.9%
same,"viability, T/C",[8],89.7%
same,"viability, T/C","second compound 0.0316 µM, first compound 0.000316 µM",100%
same,"viability, T/C","second compound 0.0316 µM, first compound 0.001 µM",95.9%
same,"viability, T/C","second compound 0.0316 µM, first compound 0.00316 µM",102%
same,"viability, T/C","second compound 0.0316 µM, first compound 0.01 µM",80.7%
same,"viability, T/C",[13],65.9%
same,"viability, T/C",[14],101%
same,"viability, T/C","second compound 0.1 µM, first compound 0.000316 µM",91.9%
same,"viability, T/C","second compound 0.1 µM, first compound 0.001 µM",93.1%
same,"viability, T/C","second compound 0.1 µM, first compound 0.00316 µM",99.6%
same,"viability, T/C","second compound 0.1 µM, first compound 0.01 µM",87%
same,"viability, T/C",[19],86.2%
same,"viability, T/C",[20],64.5%
same,"viability, T/C","second compound 0.316 µM, first compound 0.000316 µM",107%
same,"viability, T/C","second compound 0.316 µM, first compound 0.001 µM",106%
same,"viability, T/C","second compound 0.316 µM, first compound 0.00316 µM",104%
same,"viability, T/C","second compound 0.316 µM, first compound 0.01 µM",106%
same,"viability, T/C",[25],68.2%
same,"viability, T/C",[26],82.7%
same,"viability, T/C","second compound 1 µM, first compound 0.000316 µM",107%
same,"viability, T/C","second compound 1 µM, first compound 0.001 µM",105%
same,"viability, T/C","second compound 1 µM, first compound 0.00316 µM",97%
same,"viability, T/C","second compound 1 µM, first compound 0.01 µM",107%
same,"viability, T/C",[31],49.6%
same,"viability, T/C",[32],81.5%
CC(Nc1ccc2c(c1)OCCn1cc(N3C(=O)OCC3C(F)F)nc1-2)C(N)=O (stereo unspecified) + C=CC(=O)N1CCN(c2nc(OCC3CCCN3C)nc3c(F)c(-c4nc(N)cc(C)c4C(F)(F)F)c(Cl)cc23)C(C)C1,IC50,second compound 0.00316 µM,549 nM
same,IC50,second compound 0.01 µM,928 nM
same,IC50,second compound 0.0316 µM,666 nM
same,IC50,second compound 0.1 µM,810 nM
same,IC50,second compound 0.316 µM,839 nM
same,IC50,second compound 1 µM,808 nM
same,"viability, T/C",[1],96.6%
same,"viability, T/C",[2],78.6%
same,"viability, T/C",[3],54.5%
same,"viability, T/C",[4],46.1%
same,"viability, T/C",[5],39.1%
same,"viability, T/C",[6],42.7%
same,"viability, T/C",[7],97.4%
same,"viability, T/C",[8],86.2%
same,"viability, T/C",[9],70.2%
same,"viability, T/C",[10],46.8%
same,"viability, T/C",[11],38.3%
same,"viability, T/C",[12],30.3%
same,"viability, T/C",[13],87.4%
same,"viability, T/C",[14],84.4%
same,"viability, T/C",[15],63.7%
same,"viability, T/C",[16],43.5%
same,"viability, T/C",[17],33.3%
same,"viability, T/C",[18],43.4%
same,"viability, T/C",[19],95.9%
same,"viability, T/C",[20],92.5%
same,"viability, T/C",[21],71.7%
same,"viability, T/C",[22],44.2%
same,"viability, T/C",[23],35.4%
same,"viability, T/C",[24],27.4%
same,"viability, T/C",[25],107%
same,"viability, T/C",[26],88%
same,"viability, T/C",[27],68.8%
same,"viability, T/C",[28],47.9%
same,"viability, T/C",[29],31.9%
same,"viability, T/C",[30],35.8%
same,"viability, T/C",[31],94.8%
same,"viability, T/C",[32],95.6%
same,"viability, T/C",[33],72%
same,"viability, T/C",[34],46.6%
same,"viability, T/C",[35],31.8%
same,"viability, T/C",[36],35%
